According to ChEMBL document CHEMBL3632594, “Synthesis of scutellarein derivatives to increase biological activity and water solubility” (Bioorg Med Chem, 2015):
Converted amounts (≈) assume the structure as drawn.

Columns and labels:
[1] = Antithrombotic activity in New Zealand white rabbit platelet poor plasma assessed as prolongation of thrombin time at 100 uM incubated for 3 mins by coagulometer based assay; format: functional, Oryctolagus cuniculus
[2] = Antithrombotic activity in New Zealand white rabbit platelet poor plasma assessed as increase in activated partial thromboplastin time at 100 uM incubated for 3 mins by coagulometer based assay; format: functional, Oryctolagus cuniculus
[3] = Antithrombotic activity in New Zealand white rabbit platelet poor plasma assessed as increase in prothrombin time at 100 uM incubated for 3 mins by coagulometer based assay; format: functional, Oryctolagus cuniculus
[4] = Antithrombotic activity in New Zealand white rabbit platelet poor plasma assessed as fibrinogen at 100 uM incubated for 3 mins by coagulometer based assay; format: functional, Oryctolagus cuniculus
[5] = Antioxidant activity assessed as DPPH radical scavenging by spectrophotometric analysis; format: physicochemical
[6] = Neuroprotective activity against H2O2-induced cytotoxicity in rat PC12 cells assessed as cell viability at 50 uM by MTT assay; format: functional; conditions: PC-12, read-out: INH
[7] = Neuroprotective activity against H2O2-induced cytotoxicity in rat PC12 cells assessed as cell viability at 25 uM by MTT assay; format: functional; conditions: PC-12, read-out: INH
[8] = Solubility of compound in water at 0.1 to 10 ug/ml by UV spectrophotometry; format: physicochemical
[9] = Solubility of compound in water at 0.1 to 10 ug/ml by UV spectrophotometry relative to scutellarein; format: physicochemical; conditions: buffer

| IC50 [5] [µM] | solubility [8] [µg/mL] | fold change (FC) [9] | SMILES | TT [1] [s] | APTT [2] [s] | PT [3] [s] | Activity [4] [g/L] | cell viability at 50 µM [6] [%] | neuroprotection (% cell viability vs H2O2 cytotoxicity) at 25 µM [7] [%] |
| --- | --- | --- | --- | --- | --- | --- | --- | --- | --- |
| 81.3 | 8.95 (≈ 22.4 µM) | 1.31 | CCN(CC)C(=O)COc1ccc(-c2cc(=O)c3c(O)c(O)c(O)cc3o2)cc1 | 20.92 | 26.4 | 7.45 | 5.37 | 66.4 | 44.7 |
| 274 | 8.56 (≈ 20.7 µM) | 1.25 | O=c1cc(-c2ccc(OCCCN3CCOCC3)cc2)oc2cc(O)c(O)c(O)c12 | 19.6 | 28.25 | 6.63 | 5.42 | 44.2 | 28.3 |
| 215 | 9.28 (≈ 26 µM) | 1.35 | CN(C)CCOc1ccc(-c2cc(=O)c3c(O)c(O)c(O)cc3o2)cc1 | 22.97 | 29.97 | 6.82 | 5.11 | 56.2 | 35.8 |
| 205 | 8.68 (≈ 22.5 µM) | 1.27 | CCN(CC)CCOc1ccc(-c2cc(=O)c3c(O)c(O)c(O)cc3o2)cc1 | 22.03 | 30.45 | 6.9 | 5.72 | 58.4 | 38.5 |
| 83.3 | 9.45 (≈ 22.9 µM) | 1.38 | O=C(COc1ccc(-c2cc(=O)c3c(O)c(O)c(O)cc3o2)cc1)N1CCOCC1 | 19.9 | 27.1 | 7.33 | 5.49 | 64.6 | 43.4 |
| 231 | 8.5 (≈ 22.9 µM) | 1.24 | CN(C)CCCOc1ccc(-c2cc(=O)c3c(O)c(O)c(O)cc3o2)cc1 | 19.9 | 26.58 | 6.15 | 5.28 | 52.2 | 33.6 |
| 19.3 | 15.3 (≈ 38.4 µM) | 2.34 | O=C(Oc1ccc(-c2cc(=O)c3c(O)c(O)c(O)cc3o2)cc1)N1CCOCC1 | 24.62 | 28.28 | 8.55 | 5.52 | 94.2 | 73.9 |
| 22.6 |  | 1 | O=c1cc(-c2ccc(O)cc2)oc2cc(O)c(O)c(O)c12 [SCUTELLAREIN] | 24.4 | 36.65 | 5.93 | 6.84 | 91.2 | 64.6 |
| 264 | 9.4 (≈ 23.5 µM) | 1.37 | O=c1cc(-c2ccc(OCCN3CCOCC3)cc2)oc2cc(O)c(O)c(O)c12 | 19.7 | 29.05 | 6.7 | 5.23 | 48.2 | 32.3 |
| 32.6 | 9.23 (≈ 24 µM) | 1.35 | CCN(CC)C(=O)Oc1ccc(-c2cc(=O)c3c(O)c(O)c(O)cc3o2)cc1 | 24.36 | 28.2 | 7.67 | 5.21 | 75.2 | 51.3 |
| 80.7 | 9.32 (≈ 25.1 µM) | 1.36 | CN(C)C(=O)COc1ccc(-c2cc(=O)c3c(O)c(O)c(O)cc3o2)cc1 | 22.27 | 29.25 | 7.17 | 5.14 | 68.1 | 46.5 |
| 17 | 8.67 (≈ 21 µM) | 1.27 | CC(C)N(C(=O)Oc1ccc(-c2cc(=O)c3c(O)c(O)c(O)cc3o2)cc1)C(C)C | 24.57 | 27.97 | 7.97 | 5.65 | 93.4 | 71.7 |

| SMILES | IC50 [5] [µM] | solubility [8] [µg/mL] | fold change (FC) [9] | TT [1] [s] | APTT [2] [s] | PT [3] [s] | Activity [4] [g/L] | cell viability at 50 µM [6] [%] | neuroprotection (% cell viability vs H2O2 cytotoxicity) at 25 µM [7] [%] |
| --- | --- | --- | --- | --- | --- | --- | --- | --- | --- |
| CN1CCN(C(=O)Oc2ccc(-c3cc(=O)c4c(O)c(O)c(O)cc4o3)cc2)CC1 | 18.9 | 15.1 (≈ 36.5 µM) | 2.2 | 24.52 | 26.87 | 7.03 | 5.42 | 92.5 | 68.6 |
| O=C(O)[C@H]1O[C@@H](Oc2cc3oc(-c4ccc(O)cc4)cc(=O)c3c(O)c2O)[C@H](O)[C@@H](O)[C@@H]1O [SCUTELLARIN] | 27.9 |  |  | 23.08 | 34.18 | 6.28 | 6.13 | 79.2 | 53.1 |
| CN(C)C(=O)Oc1ccc(-c2cc(=O)c3c(O)c(O)c(O)cc3o2)cc1 | 37.2 | 9.56 (≈ 26.8 µM) | 1.4 | 24.3 | 27.78 | 8.1 | 5.56 | 71.2 | 48.7 |
